In patent publication US7495027B2, “3-aryl-4-hydroxyfuranone compounds and the human and animal health use thereof” (Wyeth, priority 2003, dated 2009):

Experiments:
[1] = test system: Trichostrongylus columbriformis; assay: In vivo efficacy against T. colubriformis in infected gerbils; details: gerbils infected with T. colubriformis; single oral dose of 50 mg/kg by gavage; worm counts four days post-treatment; % mortality as compared to negative control
Procedure: In Vivo Evaluation of the Efficacy of Test Compounds Against T. colubriformis
In this evaluation, gerbils are infected with Trichostrongylus columbriformis infective larvae at a concentration of approximately 800 L3/mL. Larvae for gerbil infections are cultured from feces from sheep previously infected with T. colubriformis. One week post infection, test compounds are administered by gavage as a single oral dose of 50 mg/kg of body weight. For each group of 3 gerbils, 10 mg of test compound are dissolved in 2 mL of PEG 400:DMSO (1:2 v/v) and each animal is administered the test solution at a rate of 0.1 mL/10 g of body weight. […] All animals are observed daily for morbidity and mortality. Four days post-treatment, all animals are weighed and necropsied. Worm counts are conducted with the use of stereoscopes and counters.

C. elegans = assay: Efficacy against nematodes (C. elegans motility rating); set-up: key: 0: no effect; 7: reduced movement in 24 h; 8: dead in 24 h; 9: dead in 4 h; details: observations at 4 h and 24 h postimmersion
How it was run: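 Mixed-stage C. elegans (~50 per well, L1 to adult) in M9 buffer exposed to test compound at 100 ppm, 150 ppm or 200 μM final. Motility of larvae and adults scored under dissecting microscope at 4 h and 24 h.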

SMILES	Mortality [1] [%]	Rating (C. elegans; dose 100 ppm)	Rating (C. elegans; dose 150 ppm)
O=C1OC(=Cc2ccc(OC(F)(F)F)cc2)C(O)=C1c1ccc(F)cc1 (mixture of isomers) [R=H; R1=4-F—C6H4**; R2=4-OCF3—C6H4]	51.60	9	–
O=C1OC(=Cc2cc(C(F)(F)F)ccc2F)C(O)=C1c1ccc(OC(F)(F)F)cc1 (mixture of isomers) [R=H; R1=4-OCF3—C6H4**; R2=2-F-5-CF3—C6H3]	29.50	9	–
O=C1OC(=Cc2cc(Cl)cc(Cl)c2)C(O)=C1c1ccc(OC(F)(F)F)cc1 (mixture of isomers) [R=H; R1=4-OCF3—C6H4**; R2=3,5-diCl—C6H3]	33.40	9	–
O=C1OC(=Cc2ccc(C(F)(F)F)c(F)c2)C(O)=C1c1ccc(OC(F)(F)F)cc1 (mixture of isomers) [R=H; R1=4-OCF3—C6H4**; R2=3-F-4-CF3—C6H3]	44.20	9	–
O=C1OC(=Cc2ccc(OC(F)F)cc2)C(O)=C1c1ccc(OC(F)(F)F)cc1 (mixture of isomers) [R=H; R1=4-OCF3—C6H4**; R2=4-OCHF2—C6H4]	44.20	9	–
O=C1OC(=Cc2ccc(Oc3ccccc3)cc2)C(O)=C1c1ccc(OC(F)(F)F)cc1 (mixture of isomers) [R=H; R1=4-OCF3—C6H4**; R2=4-phenoxy-C6H4]	0.00	0	–
O=C1OC(=Cc2ccccn2)C(O)=C1c1ccc(OC(F)(F)F)cc1 (mixture of isomers) [R=H; R1=4-OCF3—C6H4**; R2=pyridine-2-yl]	0.00	0	–
O=C1OC(=Cc2cccnc2)C(O)=C1c1ccc(OC(F)(F)F)cc1 (mixture of isomers) [R=H; R1=4-OCF3—C6H4**; R2=pyridine-3-yl]	0.00	0	–
O=C1OC(=Cc2cccs2)C(O)=C1c1ccc(OC(F)(F)F)cc1 (mixture of isomers) [R=H; R1=4-OCF3—C6H4**; R2=thiophen-2-yl]	0.00	0	–
O=C1OC(=Cc2ccc3ccccc3c2)C(O)=C1c1cccc2ccccc12 [R=H; R1=1-naphthyl; R2=2-naphthyl]	28.90	–	9
O=C1O/C(=C\c2ccc(-c3ccccc3)cc2)C(O)=C1c1cccc2ccccc12 [R=H; R1=1-naphthyl; R2=4-biphenyl]	18.50	–	9
O=C1O/C(=C\c2ccc(-c3ccccc3)cc2)C(O)=C1c1ccc(Cl)cc1Cl [R=H; R1=2,4-diCl—C6H3; R2=4-biphenyl]	24.50	–	9
O=C1O/C(=C\c2ccc(-c3ccccc3)cc2)C(O)=C1c1ccccc1C(F)(F)F [R=H; R1=2-CF3—C6H4; R2=4-biphenyl]	20.20	–	8
O=C1O/C(=C\c2cccc3ccccc23)C(O)=C1c1ccc2ccccc2c1 [R=H; R1=2-naphthyl; R2=1-naphthyl]	36.10	–	9
O=C1O/C(=C\c2ccc3ccccc3c2)C(O)=C1c1ccc2ccccc2c1 [R=H; R1=2-naphthyl; R2=2-naphthyl]	13.80	–	9
O=C1O/C(=C\c2ccc(-c3ccccc3)cc2)C(O)=C1c1ccc(Cl)c(Cl)c1 [R=H; R1=3,4-diCl—C6H3; R2=4-biphenyl]	23.00	–	9
O=C1O/C(=C\c2cccc3ccccc23)C(O)=C1c1cc(Cl)cc(Cl)c1 [R=H; R1=3,5-diCl—C6H3; R2=1-naphthyl]	0.00	–	9
O=C1O/C(=C\c2ccc3ccccc3c2)C(O)=C1c1cccc(C(F)(F)F)c1 [R=H; R1=3-CF3—C6H4; R2=2-naphthyl]	35.20	–	9
O=C1O/C(=C\c2cccc(C(F)(F)F)c2)C(O)=C1c1cccc(C(F)(F)F)c1 [R=H; R1=3-CF3—C6H4; R2=3-CF3—C6H4]	10.10	–	9
O=C1O/C(=C\c2ccc(Cl)cc2)C(O)=C1c1cccc(C(F)(F)F)c1 [R=H; R1=3-CF3—C6H4; R2=4-Cl—C6H4]	21.60	9	–
